In paper PMC5886804 (Nature, 2018) one finds EC50 and stoichiometry N data, which are given here for 2 compounds.

Test [1] concerns the target MmTPC1 Leu11Ala/Ile12Ala (plasma membrane-targeting, considered as the wild type channel) (Mus musculus, UniProt Q9EQJ0, I12A/L11A/R540Q). The test is described as follows: inside-out patch clamp, HEK293 cells. The class given is cell-based.
Test [2] deals with Mouse TPC1 (two-pore channel 1) (mouse) (UniProt Q9EQJ0). The test is described as follows: cryo-EM structure.

Usually EC50 stands for the concentration giving half of the maximal effect. Read a high EC50 as a need for much substance. As a reminder, the stoichiometry N is the number of molecules, sites or subunits per partner or assembly.

Regarding `CCCCCCCC(=O)OC[C@H](COP(=O)(O)O[C@@H]1[C@H](O)[C@H](OP(=O)(O)O)[C@@H](O)[C@H](OP(=O)(O)O)[C@H]1O)OC(=O)CCCCCCC` [PtdIns(3,5)P2], in test [1], the concentration for a half-maximal effect (EC50) is roughly 145 nM.
The compound “Mouse TPC1 (two-pore channel 1) (from UniProt Q9EQJ0-1 1-817) (natural protein)” showed a stoichiometry N in test [2] of 2.
